The results in this text go back to patent US6624187B1, “Long wave length absorbing bacteriochlorin alkyl ether analogs” (Health Research, Inc., priority 2000, dated 2003).

Series [1] has as its system RIF tumor. Put plainly: In vivo photosensitizing efficacy of bacteriopurpurinimides against RIF tumor. As to conditions: for Tumor Response (%): Day 7-90. How it is done:
The photosensitizers were dissolved in known quantity of Tween 80 (Aldrich) surfactant and diluted by a factor of 10 with 5% dextrose solution in water to produce a final Tween 80 concentration of 1%. The solution was then filtered through a syringe filter. The concentration of the solution was determined on the basis of the extinction coefficient value of the photosensitizer at the longest wavelength absorption.
Before injecting the drug to the animals, the purity of the material was confirmed by HPLC using a Spectra-Physics system connected to a SP8 700 solvent delivery system and Kratos 757 absorption detector with a fixed wavelength at 405 or 786 nm. Two solvent systems were used in the HPLC analysis: solvent A was prepared by dissolving anhydrous dibasic sodium phosphate (1.0 g) in 400 ml water. To this was added HPLC grade methanol (600 ml). The pH of the solution was adjusted to 7.5 with phosphoric acid; and solvent B was prepared by dissolving anhydrous dibasic sodium phosphate (0.3 g) in 100 ml water, to this was added methanol (900 ml), and the pH was adjusted to 7.5 with phosphoric acid. Solvents A and B were used as gradient mode (0-10 min A, 10-40 min A-B, 40-50 min B, 50-60 min back to A). In some cases solvent B was used as isocratic mode (column reverse phase C-8, flow rate 1.5 ml/min). Prior to irradiation, the fur over grown and surrounding the tumor was removed with electric clippers. Twenty four hours after injecting the drug, the mouse was placed in a custom made aluminum holder. Standard light dose 75 mW/cm^2 for 30 min for a total incident light dose of 135 J/cm^2 from a tunable dye laser tuned to the maximum red absorption peak at 790 nm (in vivo absorption, determined by in vivo reflectance spectroscopy). Laser output was measured with a power meter.
Following light exposure, the mice were kept in groups of 5/cage and supplied with pelleted food and water ad libitum. Tumor size and gross appearance of both tumor and overlying skin was monitored daily for 90 days after photo-illumination unless growth of non-responsive tumor require early sacrifice of those animals.
Bacteriopurpurin-imides 5-7 above have been evaluated for in vivo studies in a mouse tumor model system (RIF tumor). […] The mice were treated with light (790 nm, 135 J/cm^2) after 24 h post injection of the drug (80% tumor cure on day 21 and 60% on day 90). […] The efficacy of the drug was also determined at variable drug and light doses.

Series [2] relates to RIF tumor. Briefly: Tumor uptake and in vivo absorption shift by in vivo reflectance spectroscopy. Details: species or system mouse. How it is done:
FIGS. 4A and 4B show curves of in vivo light wave absorption of compound 7 in RIF tumor at 24 hours and 5 days post injection.
The tumor uptake and in vivo shift in the long wavelength absorption of the bacteriopurpurin-imide 7 was determined by in vivo reflectance spectroscopy. […] Thus, the tumors were irradiated with light at that particular wavelength. […] In vivo studies with these and other bacteriochlorin analogs at variable treatment conditions are currently in progress.

Series [3] relates to mouse foot tissue. Put plainly: Foot response phototoxicity in mouse foot tissue. It is filed as in vivo. The settings on record: 0.47 mmol/kg I.V.; 135 J/cm^2 at 790 nm; feet illuminated 5 days after injection. How it is done: Since prolonged cutaneous photosensitivity is a serious side-effect of Photofrin® administration, we tested the phototoxicity of 3-deacetyl-3-(1-heptyloxyethyl) bacteriopurpurin-18-N-hexylimide 7 in mouse foot tissue and the therapeutic drug and light doses. Mice were injected (I.V.) with 0.47 mmol/kg of the drug. Feet were illuminated with 135 J/cm^2 at 790 nm laser light on days 1, 2, 3, 4 and 5 (FIG. 5). Foot response was graded according to the following arbitrary scale: 0, no difference from normal; 0.1, very slight edema; 0.3, slight edema; 0.5, moderate edema; 0.75, large edema; 1, large edema with exudate; 1.2, moderate reddening with slight scaly or crusty appearance; 1.65, slight damage to toes; 1.75, definite damage or slight fusion of toes; 2.0, most toes fused; 2.5, foot almost shapeless with no toes; 3, only stub of foot remaining.

Series [4] is described as follows: In vivo PDT efficacy of bacteriochlorin-N-hexylimide. An excerpt: Compared to the anhydride ring system, compounds with fused imide ring system in other compounds have shown stability in vivo. For example, among non-porphyrin systems, amonafide, an imide derivative and its structural analogs are reported as anti-neoplastic agents in vitro as well as in vivo with good stability. While we could not know how this might apply to non-porphyrin systems, we investigated the effect of such cyclic structures in the bacteriochlorin system. Initially we followed our own methodology developed for the preparation of purpurin-18-N-alkylimides (U.S. Pat. No. 5,952,366 incorporated herein by reference). Unfortunately, that approach produced a complex reaction mixture. Thus, in a modified approach, bacteriopurpurin-a 2 was first reacted with an alkyl amine (e.g. n-hexyl amine). The formation of the intermediate amide was monitored by spectrophotometry and analytical thin layer chromatography. The intermediate amide analog 3, obtained as a mixture of two isomers, was reacted with diazomethane, and the solvent was removed under vacuum. The residue so obtained was re-dissolved in tetrahydrofuran, and solvent was evaporated. This procedure was repeated several times until the disappearance of the absorption at 765 nm and appearance of a new peak at 822 nm.

[5] abbreviates: injected dose 1.0 μmol/kg, light 790 nm 135J/cm^2 24 h post injection, C3H mice.
Where [6] appears, read: injected dose 0.2 μmol/kg, light 790 nm 175J/cm^2 24 h post injection.
Where [7] appears, read: injected dose 0.47 μmol/kg, light 790 nm 135J/cm^2 24 h post injection.

Entries after “also recorded” stand apart in the source; their conditions may differ.

On to `C=Cc1c(C)c2cc3nc(c4c5[nH]c(cc6nc(cc1[nH]2)[C@H](C)[C@H]6CC)c(C)c5C(=O)N(CCCCCC)C4=O)[C@@H](CCC(=O)OCCC)[C@@H]3C` [Compound 6, 3-Deacetyl-3-vinyl-bacteriopurpurin-18-N-hexylimide Propylester], for which, in series [1] (setting [5]), the “Tumor Response (%)” value is “did not produce any PDT efficacy; also recorded: NO RESPONSE”.
As to `CCCCCCCOC(C)c1c(C)c2cc3nc(c4c5[nH]c(cc6nc(cc1[nH]2)[C@H](C)[C@H]6CC)c(C)c5C(=O)N(CCCCCC)C4=O)[C@@H](CCC(=O)OCCC)[C@@H]3C` (stereo partly shown) [Compound 7, 3-Deacetyl-3-(1-heptyloxyethyl)-bacteriopurpurin-N-hexylimide Propyl Ester], the “mice tumor free on day 90” value in series [1] (drug dose 0.2 μmol/kg, light dose 175 J/cm^2) is given as “four out of six”. Also, the “mice died after the light treatment” value in series [1] (drug dose 1.0 μmol/kg, light 790 nm, 135 J/cm^2) is 6/6. Moreover, the “Tumor Response (%)” value in series [1] (injected dose 0.2 μmol/kg, light 790 nm 135J/cm^2 24 h post injection) is recorded as “did not show any PDT efficacy; also recorded: NO RESPONSE”; in series [1] (setting [5]), “ALL MICE DIED”. The “Tumor Response (%) Day 7” value is on record as 100% in series [1] (setting [6]) and 80% in series [1] (setting [7]). Besides, the “Tumor Response (%) Day 21” value in series [1] (setting [6]) is 70%; in series [1] (setting [7]) it was 80%. Besides, the entries for the “Tumor Response (%) Day 90” value in series [1] (setting [6]) and in series [1] (setting [7]) were 70% and 60%, respectively. Also, the “in vivo stability of fused imide ring system” value in series [2] (5 day post injection) is given as “quite stable in vivo”. Also, in series [2] (day 5 versus day 1 post injection, RIF tumor), the tumor uptake result was “significantly higher tumor uptake at day 5 than day 1”. Also, the foot response phototoxicity result in series [3] is given as “did not show any toxicity”.
In the case of “3-Acetyl-bacteriopurpurin-18-N-hexylimide [Compound 4]”, in series [4], the “in vivo PDT efficacy” value was “did not produce any significant in vivo PDT efficacy”.
For the compound `CCCCCCN1C(=O)c2c3nc(cc4[nH]c(cc5nc(cc6[nH]c2c(c6C)C1=O)[C@H](CC)[C@H]5C)c(C(C)O)c4C)[C@@H](C)[C@@H]3CCC(=O)OCCC` (stereo partly shown) [Compound 5, 3-Deacetyl-3-(1-hydroxyethyl)bacteriopurrurin-18-N-hexylimide], the “Tumor Response (%)” value in series [1] (setting [5]) is listed as “did not produce any PDT efficacy; also recorded: NO RESPONSE”.
